In ChEMBL document CHEMBL1148281, “Carbonic anhydrase inhibitors: synthesis and topical intraocular pressure lowering effects of fluorine-containing inhibitors devoid of enhanced reactivity” (J Med Chem, 2004) one finds Reactivity and Ki data, which are given here for 33 molecules.

Molecules are shown by their SMILES.

Test [1] in a line: Reactivity against glutathione after 24 hours of incubation. It is filed as functional.
Test [2] can be described thus: Reactivity against cysteine after 24 hours of incubation. The class given is functional.
A further test has as its target T1, Carbonic anhydrase 4 (Bos taurus, UniProt Q95323).
T1 sequence (Q95323 whole entry): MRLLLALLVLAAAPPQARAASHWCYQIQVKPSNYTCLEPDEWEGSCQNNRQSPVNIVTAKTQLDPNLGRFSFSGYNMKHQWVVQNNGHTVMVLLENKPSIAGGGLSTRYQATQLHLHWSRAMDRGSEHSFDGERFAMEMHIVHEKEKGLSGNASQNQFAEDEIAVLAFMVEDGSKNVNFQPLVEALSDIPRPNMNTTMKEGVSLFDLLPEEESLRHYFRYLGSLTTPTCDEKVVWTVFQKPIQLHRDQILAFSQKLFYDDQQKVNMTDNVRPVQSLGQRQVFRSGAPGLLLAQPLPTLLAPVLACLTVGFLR

A further test addresses Carbonic anhydrase 1 (Homo sapiens, UniProt P00915).
The target of a further test is Carbonic anhydrase 2 (Homo sapiens, UniProt P00918).

Carbonic anhydrase 1, sequence (P00915 whole entry): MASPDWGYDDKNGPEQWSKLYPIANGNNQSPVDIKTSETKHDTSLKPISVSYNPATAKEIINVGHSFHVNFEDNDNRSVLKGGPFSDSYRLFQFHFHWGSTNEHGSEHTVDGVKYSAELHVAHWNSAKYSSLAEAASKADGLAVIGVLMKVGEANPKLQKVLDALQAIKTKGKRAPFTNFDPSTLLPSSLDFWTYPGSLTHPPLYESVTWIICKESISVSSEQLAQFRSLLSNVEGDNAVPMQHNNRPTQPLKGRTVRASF
Description for Carbonic anhydrase 1: In vitro inhibitory activity against human carbonic anhydrase I (hCAI)
Description for Carbonic anhydrase 2: In vitro inhibitory activity against human carbonic anhydrase II (hCAII)
Description for Carbonic anhydrase 4: In vitro inhibitory activity against bovine carbonic anhydrase IV (CAIV)

Turning to `NS(=O)(=O)c1nnc(NS(=O)(=O)c2c(F)c(F)c(F)c(F)c2F)s1`, the Reactivity in test [1] is 68%; in test [2] it was 76%.

With `NS(=O)(=O)c1ccc(NS(=O)(=O)c2ccc(NC(=O)c3c(F)c(F)cc(F)c3F)cc2)cc1`, the Ki on Carbonic anhydrase 4 is 63 nM.

In the case of `COc1ccc(NS(=O)(=O)c2c(F)c(F)c(F)c(F)c2F)cc1`, the Reactivity in test [1] amounted to 96%; in test [2], 98%.

As to `NS(=O)(=O)c1ccc(NC(=O)Nc2c(F)c(F)c(F)c(F)c2F)cc1`, the Reactivity in test [1] and in test [2] was 0% throughout. The Ki at Carbonic anhydrase 4 was found to be 21 nM.

As to `NS(=O)(=O)c1ccc(NC(=O)Nc2c(F)c(F)c(F)c(F)c2F)c(Cl)c1`, the Ki on Carbonic anhydrase 1 stood at 1300 nM; at Carbonic anhydrase 2, 80 nM; on Carbonic anhydrase 4 it was 245 nM.

In turn, `NS(=O)(=O)c1cccc(NC(=O)c2c(F)c(F)cc(F)c2F)c1` came in with a Ki at Carbonic anhydrase 4 of 430 nM.

Turning to `Cn1nc(S(N)(=O)=O)s/c1=N/C(=O)c1c(F)c(F)cc(F)c1F`, the inhibition constant Ki worked out at 270 nM at Carbonic anhydrase 1, 1.4 nM on Carbonic anhydrase 2 and 28 nM on Carbonic anhydrase 4.

Turning to `NS(=O)(=O)c1ccc(NS(=O)(=O)c2c(F)c(F)cc(F)c2F)cc1`, the Ki at Carbonic anhydrase 1 worked out at 1300 nM; at Carbonic anhydrase 2 it was 25 nM; at Carbonic anhydrase 4, 330 nM.

With `NS(=O)(=O)c1ccc(Nc2ccnc(NS(=O)(=O)c3c(F)c(F)cc(F)c3F)n2)cc1`, the figures for the Ki at Carbonic anhydrase 1, at Carbonic anhydrase 2 and on Carbonic anhydrase 4 were 320 nM, 13 nM and 21 nM, respectively.

`NS(=O)(=O)c1ccccc1NC(=O)c1c(F)c(F)cc(F)c1F` yielded a Ki at Carbonic anhydrase 4 of 690 nM. This counts as sub-micromolar.

Regarding `NS(=O)(=O)c1ccc(NC(=O)c2c(F)c(F)cc(F)c2F)c(F)c1`, the Reactivity in test [1] and in test [2] was 0% each time. The molecule also displayed a Ki at Carbonic anhydrase 4 of 31 nM.

Regarding `NS(=O)(=O)c1cc(S(N)(=O)=O)c(NC(=O)Nc2c(F)c(F)c(F)c(F)c2F)cc1Cl`, the inhibitory constant (Ki) on Carbonic anhydrase 1 was 740 nM; on Carbonic anhydrase 2, 16 nM; at Carbonic anhydrase 4, 58 nM.

Consider `NS(=O)(=O)c1cccc(NC(=O)Nc2c(F)c(F)c(F)c(F)c2F)c1`, for which the affinity on Carbonic anhydrase 4 corresponds to a Ki of 430 nM.

With `NS(=O)(=O)c1nnc(NS(=O)(=O)c2c(F)c(F)cc(F)c2F)s1`, the Reactivity in test [1] and in test [2] was 0% in each case. On Carbonic anhydrase 4, this molecule had an inhibition constant Ki of 15 nM.

With `NS(=O)(=O)c1ccc(NS(=O)(=O)c2c(F)c(F)cc(F)c2F)c(F)c1`, the Ki at Carbonic anhydrase 1 is 580 nM; at Carbonic anhydrase 2, 3.8 nM; on Carbonic anhydrase 4, 42 nM.

On Carbonic anhydrase 4, `NS(=O)(=O)c1ccc(CNC(=O)c2c(F)c(F)cc(F)c2F)cc1` registered a Ki of 120 nM.

At Carbonic anhydrase 4, `NS(=O)(=O)c1ccc(CCNS(=O)(=O)c2c(F)c(F)cc(F)c2F)cc1` yielded a Ki of 76 nM.

As for `NS(=O)(=O)c1ccc(CNC(=O)Nc2c(F)c(F)c(F)c(F)c2F)cc1`, the results for the inhibition constant Ki at Carbonic anhydrase 1, at Carbonic anhydrase 2 and at Carbonic anhydrase 4 were 1000 nM, 15 nM and 50 nM, respectively.

For `NS(=O)(=O)c1nnc(NC(=O)c2c(F)c(F)cc(F)c2F)s1`, on Carbonic anhydrase 4, the Ki is 24 nM. That is a double-digit nanomolar value.

On to `NS(=O)(=O)c1ccc(NC(=O)c2c(F)c(F)cc(F)c2F)c(Cl)c1`, for which the Ki at Carbonic anhydrase 4 stood at 42 nM.

In the case of `NS(=O)(=O)c1ccc(CNS(=O)(=O)c2ccc(NC(=O)c3c(F)c(F)cc(F)c3F)cc2)cc1`, the Ki at Carbonic anhydrase 4 was 54 nM.

For the molecule `NS(=O)(=O)c1ccc(NC(=O)c2c(F)c(F)c(F)c(F)c2F)c(F)c1`, the results for the Reactivity in test [1] and in test [2] were 49% and 55%, respectively.

At Carbonic anhydrase 4, `NS(=O)(=O)c1ccc(CCNC(=O)c2c(F)c(F)cc(F)c2F)cc1` had a Ki of 94 nM.

For `NS(=O)(=O)c1ccc(NC(=O)Nc2c(F)c(F)c(F)c(F)c2F)c(Br)c1`, the inhibition constant Ki on Carbonic anhydrase 1 was found to be 1960 nM; at Carbonic anhydrase 2, 95 nM; at Carbonic anhydrase 4 it was 360 nM.

On Carbonic anhydrase 4, `NS(=O)(=O)c1ccc(CCNS(=O)(=O)c2ccc(NC(=O)c3c(F)c(F)cc(F)c3F)cc2)cc1` gave an inhibition constant Ki of 49 nM.

Molecule `NS(=O)(=O)c1ccc(CNS(=O)(=O)c2c(F)c(F)cc(F)c2F)cc1` displayed a Ki on Carbonic anhydrase 4 of 135 nM.

On to `NS(=O)(=O)c1ccc(NS(=O)(=O)c2c(F)c(F)cc(F)c2F)c(Cl)c1`, for which the Ki at Carbonic anhydrase 1 stood at 930 nM; on Carbonic anhydrase 2 it was 61 nM; on Carbonic anhydrase 4 it was 49 nM.

On Carbonic anhydrase 4, `NS(=O)(=O)c1ccc(NC(=O)c2c(F)c(F)cc(F)c2F)cc1` displayed an inhibition constant Ki of 400 nM. This counts as sub-micromolar.

At Carbonic anhydrase 4, `NS(=O)(=O)c1ccc(NC(=O)c2c(F)c(F)cc(F)c2F)c(Br)c1` yielded a Ki of 50 nM.

Consider `NS(=O)(=O)c1ccc(NC(=O)Nc2c(F)c(F)c(F)c(F)c2F)c(F)c1`, for which the values for the Ki on Carbonic anhydrase 1, at Carbonic anhydrase 2 and on Carbonic anhydrase 4 were 760 nM, 18 nM and 63 nM, respectively.

As for `NS(=O)(=O)c1nnc(NC(=O)Nc2c(F)c(F)c(F)c(F)c2F)s1`, the Ki on Carbonic anhydrase 1 was determined as 270 nM; at Carbonic anhydrase 2 it was 3.6 nM; at Carbonic anhydrase 4, 45 nM.

`NS(=O)(=O)c1ccccc1NC(=O)Nc1c(F)c(F)c(F)c(F)c1F`: the Ki on Carbonic anhydrase 1 is 1750 nM; on Carbonic anhydrase 2 it was 44 nM; on Carbonic anhydrase 4, 485 nM.

Turning to `NS(=O)(=O)c1ccc(CCNC(=O)Nc2c(F)c(F)c(F)c(F)c2F)cc1`, the inhibition constant (Ki) on Carbonic anhydrase 1 amounted to 940 nM; on Carbonic anhydrase 2, 15 nM; on Carbonic anhydrase 4, 41 nM.
